The values below are quoted from earlier work in patent US20230181510A1, “COMPOSITION AND METHODS OF RETINOIC ACID” (priority 2020, published 2023).

For one series, the system named is human skin. The following applies: topical stabilized treatment, human skin in vitro and in vivo.
In a further series the test system is collagen. Particulars: topical treatment.

In the case of retinoic acid, in the series on human skin, the “Expression of HAS genes and HA production” value is “induce the expression of hyaluronic acid (HA) synthase (HAS) genes and HA production”. Moreover, the Collagen regeneration entry in the series on collagen is listed as “stimulates collagen regeneration”.
